# According to US20230414571A1, “APPLICATION OF SMALL-MOLECULE COMPOUND IN PREPARATION OF ANTITUMOR DRUG” (SOOCHOW UNIVERSITY, priority 2021, published 2023):
# Key:
# hexokinase 2 (HK2) = target: T1, hexokinase 2 (HK2) (Homo sapiens, UniProt P52789); assay: HK2 activity test on GLMSD platform (graphite dots MALDI-MS); format: biochemical
# T1 sequence (P52789 1-917): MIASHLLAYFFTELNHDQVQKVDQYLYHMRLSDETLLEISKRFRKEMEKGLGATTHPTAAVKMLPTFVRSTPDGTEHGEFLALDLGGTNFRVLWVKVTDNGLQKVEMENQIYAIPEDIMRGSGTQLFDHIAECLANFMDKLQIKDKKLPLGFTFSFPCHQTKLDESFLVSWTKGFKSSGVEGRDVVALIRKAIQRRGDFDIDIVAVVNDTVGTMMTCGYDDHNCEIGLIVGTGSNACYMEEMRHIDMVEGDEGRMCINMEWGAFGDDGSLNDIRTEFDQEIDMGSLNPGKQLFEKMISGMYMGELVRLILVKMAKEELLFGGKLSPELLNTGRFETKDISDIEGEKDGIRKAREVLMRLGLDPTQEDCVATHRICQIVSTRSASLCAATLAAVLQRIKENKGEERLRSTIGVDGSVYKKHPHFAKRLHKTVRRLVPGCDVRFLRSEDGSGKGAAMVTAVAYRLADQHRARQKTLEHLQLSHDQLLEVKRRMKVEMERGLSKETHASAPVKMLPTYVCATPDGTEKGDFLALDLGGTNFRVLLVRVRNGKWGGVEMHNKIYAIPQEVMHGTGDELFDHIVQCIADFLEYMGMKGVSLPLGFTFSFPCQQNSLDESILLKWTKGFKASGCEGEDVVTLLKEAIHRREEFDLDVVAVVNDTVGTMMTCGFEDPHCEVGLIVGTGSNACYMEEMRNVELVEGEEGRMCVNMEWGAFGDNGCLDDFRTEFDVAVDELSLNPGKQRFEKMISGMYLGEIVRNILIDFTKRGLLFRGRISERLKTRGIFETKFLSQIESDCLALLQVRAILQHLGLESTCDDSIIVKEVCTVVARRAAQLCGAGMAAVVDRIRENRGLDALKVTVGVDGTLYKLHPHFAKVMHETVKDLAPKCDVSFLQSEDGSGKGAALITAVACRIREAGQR
# Protocol: GDs were dispersed in water at a concentration of 1 mg/mL as a matrix solution to be used. A sample was prepared by using a quick-drying method: firstly, 1 μL of matrix solution was dropped onto a target plate, and after natural drying at a room temperature in a […], 1 μL of sample to be analyzed was dropped onto a surface of the dried matrix, and after the sample was naturally dried, mass spectrometry was directly performed:
# An instrument in the MALDI-MS was a Bruker Ultraflex III TOF/TOF mass spectrometer, which was mainly in a reflection positive and negative ion mode. Nd of 355 nm for instrument parameter: YAG laser had laser energy of 30% corresponding to 57 μJ per pulse (laser pulse duration: 3 ns), a laser spot size was about 50-100 μm, each sample was repeatedly tested four times, and 3000 laser spots were accumulated in each mass spectrum. All samples were measured under the same instrumental conditions.
# an inhibition rate=(1−B/A)×100%, where • A was: a glucose concentration in a pre-reaction solution without the inhibitor-a glucose concentration in a post-reaction solution without the inhibitor, • B was: a glucose concentration in a pre-reaction solution with the inhibitor-a glucose concentration in a post-reaction solution with the inhibitor, and • a glucose concentration in the reaction solution=(mass spectrum signal strength of [glucose+Na]+/mass spectrum signal strength of [glucose-1-^13C+Na]+)×known concentration of glucose-1-^13C.
# [1] = Plasma pharmacokinetics in mice determined by GLMSD; format: in vivo, mouse; settings: mouse, in vivo, 40 mg/kg
# Protocol: It can be seen from FIG. 8-1 that the GLMSD platform can specifically acquire the pharmacokinetic data of small-molecule compound 27. Competitive advantages of GLMSD in pharmacokinetic research: (1) a complete drug blood concentration curve of each individual may be tracked; and (2) the total number of mice used in the test is reduced. Since the blood sample consumption of the GLMSD method is low (10 μL of blood per time point), one mouse can be used for completing the entire pharmacokinetic curve (blood sampling at 11 time points within 24 hours, and the minimum interval being 0.25 hour) of a drug.
# Based on the advantage that the complete PK curve can be tested by means of the GLMSD, we observe that 3 (#2, #3 and #4) in 8 mice have the characteristic re-absorption peak of this small-molecule inhibitor at the time point of 8 h, and such a characteristic re-absorption peak hardly exists in other 5 mice. This significant phenomenon is related to drug uptake differences between individuals, prompting that compound 27 may re-enter blood circulation by means of a secondary absorption pathway. In the mode of continuous multiple administration (c in FIG. 8-2), pharmacokinetic data of compound 27 (40 mg/kg) was collected from each mouse every day (1, 3, 6, and 8 hours after last administration) for 5 days. For a single dose (a in FIG. 8-2) or a continuous multi-dose (d in FIG. 8-2) administration manner, a limitation of a conventional LC-MS technology lies in obtaining a single data point of pharmacokinetics of a drug by sacrificing one mouse, whereas GLMSD can break through this limitation by providing a complete pharmacokinetic curve based on a single mouse.
compound,measurement,setting,value
CCOc1ccc(C(=O)NCCCN(C)CCCN(C)Cc2ccccc2)cc1Br [compound 27],inhibitory effect on the HK2,"hexokinase 2 (HK2); inhibition curves FIGS. 3-7, colorimetric kit and GLMSD",good inhibitory effects
same,inhibition at 20 µM,"hexokinase 2 (HK2); small-molecule concentration of the inhibitor 20 μM, GLMSD, read-out: inhibition rate of HK2 activity",31%
same,AUC(0-t),[1],64400 ng·h/mL
same,Cmax,[1],14600 ng/mL
same,Tmax,[1],2 h
same,half-life,[1],4.12 h
